In general, inhibition refers to the drop in the measured response relative to a control, in per cent. In general, Vmax refers to the top rate of the reaction or transport when substrate is in excess. As usually defined, the IC50 is the point on the concentration scale where inhibition reaches its midpoint. Low readings indicate inhibition by little substance, high ones a need for much substance.

Calls of active or inactive are those of the source. No cut-off for these calls is given here.

These results are taken from ChEMBL document CHEMBL4390635, “α-Glucosidase inhibition activity and in silico study of 2-(benzo[d][1,3]dioxol-5-yl)-4H-chromen-4-one, a synthetic derivative of flavone” (Bioorg Med Chem, 2019).

The test system of assay [1] is Saccharomyces cerevisiae. In words: Inhibition of Saccharomyces cerevisiae alpha-glucosidase at 3.54 uM incubated for 30 mins before pNPG substrate addition and measured after 10 mins by spectrophotometry relative to untreated control.
The test system of assay [2] is Saccharomyces cerevisiae. Description: Inhibition of Saccharomyces cerevisiae alpha-glucosidase incubated for 30 mins before pNPG substrate addition and measured after 10 mins by spectrophotometry.
Assay [3] relates to Saccharomyces cerevisiae. In words: Non-competitive inhibition of Saccharomyces cerevisiae alpha-glucosidase assessed as substrate Km incubated for 15 mins before pNPG substrate addition and measured for 180 secs by spectrophotometry based Michaelis-Menten equation and Lineweaver-Burk plot analysis.
In assay [4] the test system is Saccharomyces cerevisiae. In words: Non-competitive inhibition of Saccharomyces cerevisiae alpha-glucosidase assessed as substrate Vmax incubated for 15 mins before pNPG substrate addition and measured for 180 secs by spectrophotometry based Michaelis-Menten equation and Lineweaver-Burk plot analysis.
In assay [5] the test system is Saccharomyces cerevisiae. In words: Inhibition of Saccharomyces cerevisiae alpha-glucosidase at 27.62 uM incubated for 30 mins before pNPG substrate addition and measured after 10 mins by spectrophotometry relative to untreated control.
The test system of assay [6] is Saccharomyces cerevisiae. In words: Competitive inhibition of Saccharomyces cerevisiae alpha-glucosidase incubated for 30 mins before pNPG substrate addition and measured after 10 mins by spectrophotometry based Michaelis-Menten equation and Lineweaver-Burk plot analysis.
Assay [7] relates to Saccharomyces cerevisiae. In words: Inhibition of Saccharomyces cerevisiae alpha-glucosidase at 669.57 uM incubated for 30 mins before pNPG substrate addition and measured after 10 mins by spectrophotometry relative to untreated control.
For another assay, the target named is Alpha glucosidase (Homo sapiens, UniProt O43451+P10253+P14410+Q2M2H8). In words: Inhibition of alpha-glucosidase (unknown origin) incubated for 20 mins before pNPG substrate addition and measured after 30 mins by UV spectrometry. The assay is classed as protein assay.

`O=c1cc(-c2ccc3c(c2)OCO3)oc2ccccc12`: the inhibition was 8.4% with Saccharomyces cerevisiae [1], “Dose-dependent effect” with Saccharomyces cerevisiae [2] and 99.3% in the assay with Saccharomyces cerevisiae [5]. In the assay on Saccharomyces cerevisiae [3], the Km turned out to be 71.4 µM⁻¹. The Vmax with Saccharomyces cerevisiae [4] came to 0.028 µmol/min.

As for `C[C@H]1O[C@H](O[C@H]2[C@H](O)[C@@H](O)[C@@H](O[C@H]3[C@H](O)[C@@H](O)C(O)O[C@@H]3CO)O[C@@H]2CO)[C@H](O)[C@@H](O)[C@@H]1N[C@H]1C=C(CO)[C@@H](O)[C@H](O)[C@H]1O` (some centres undefined), the inhibition entry in the assay on Saccharomyces cerevisiae [6] is “Active”. In the assay with Saccharomyces cerevisiae [7], this compound came in with an inhibition of 97.7%.

At Alpha glucosidase, H-RVPSLM-OH yielded a concentration for half-maximal inhibition (IC50) of 23.07 µM.

`Cc1cc(=O)oc2c(O)c(O)ccc12` [4-METHYLDAPHNETIN] returned an IC50 against Alpha glucosidase of 52 µM.
